In brackets after ≈: the same amount, converted by molar mass.
Experiments:
Assay type in all cases: cell-based
[1] = test system: Escherichia coli (E. coli—ATCC #8739); assay: Minimum Biocidal Concentration (MBC) in suspension
Protocol: (§1) The antimicrobial efficacy of the antimicrobial agent in the composition is determined by measuring its Minimum Biocidal Concentration (MBC). The MBC is defined as the lowest absolute concentration of the particular antimicrobial active which provides complete kill (zero bacterial growth). The MBC of the compositions herein was determined against the bacterium, Staphylococcus aureus (S. aureus—ATCC #6538), a gram positive bacterium, and against Escherichia coli (E. coli—ATCC #8739), a gram negative bacterium. These microorganisms are representative of natural contaminants in many consumer and industrial applications. The bacteria inoculum was prepared by transferring several colonies from a Tryptone Soy Agar (TSA) plate to a saline solution (0.85% NaCl), the bacteria concentration in this saline solution was determined by measuring the % Transmittance at 425 nm and adjusted by either adding more bacteria or more saline solution until the % Transmittance at 425 nm was between 23-25% for S. aureus, and between 30-32% for E. coli, this % transmittance corresponds to a bacteria concentration of 10^8 CFU/ml. […] Each subsequent well (rows B to G) were dosed with 100 μL of the same fabric refresher composition, without the addition of the antimicrobial agent. 100 μL of the fabric refresher composition comprising the antimicrobial active was transferred from row A to row B and mixed. 100 μL of the composition was then transferred from row B to row C and mixed, and the process repeated to row G. As such, the concentration of the antimicrobial agent underwent two-fold dilution in adjacent wells, while the concentration of the other actives in the fabric refresher composition remained constant across all the wells in the same column. 10 μL of the 10^8 CFU/ml bacteria suspension in saline was added to wells A to F of the microtiter plate with row G kept as a nil bacteria control. The final volume in each well was 110 μL, except for row G which comprised 100 μL of the fabric refresher composition and no bacteria suspension. […] The plate was incubated at 32.5° C. for 48 h. MBC concentration is taken as the lowest concentration of the antimicrobial active at which no visible colony growth is observed on the TSA plate. The antibacterial efficacy of the bispyridinium alkane octenidine hydrochloride was compared to that of quaternary ammonium and alkylamine antimicrobial compounds in two fabric freshening compositions.

[2] = test system: Staphylococcus aureus (S. aureus—ATCC #6538); assay: Minimum Biocidal Concentration (MBC) in suspension
Protocol: as §1

[3] = test system: Staphylococcus aureus (S. aureus—ATCC #6538); assay: Antibacterial efficacy on fabrics (cotton carriers); settings: cotton fabric carriers; 0.05% antimicrobial active; 10 mins contact time; 5% horse serum soil load
Protocol: The bactericidal efficacy on fabric surfaces of fabric refresher compositions comprising different antimicrobial agents was determined against the bacterium, Staphylococcus aureus (S. aureus—ATCC #6538). The bacteria inoculum was prepared by transferring several colonies from a Tryptone Soy Agar (TSA) plate to a saline solution (0.85% NaCl) comprising 5% horse serum as additional soil load, the bacteria concentration in this saline solution was determined by measuring the % Transmittance at 425 nm and adjusted by either adding more bacteria or more saline solution until the % Transmittance at 425 nm is between 23-25% which corresponds to a bacteria concentration of 10^8 CFU/ml.
Fabric carriers, 1 cm×1 cm disks of cotton sterilized by autoclaving, were inoculated with 50 μL of the 10^8 CFU/ml bacteria inoculum and incubated for 30 mins at 32° C. After this incubation period, fabric carriers were treated with 2.5 ml of different fabric refresher compositions comprising no antimicrobial active (reference), or 0.05% of either bispyridinium alkane (octenidine dihydrochloride) or N-(3-aminopropyl)-N-dodecylpropane-1,3-diamine (Lonzabac 12.30) as antimicrobial actives. […] 100 μL of each of the serial dilutions were plated on a TSA plate, plates were incubated at 32° C. for 48 hours, after this incubation time, the number of colonies in each plate was counted. […]

[4] = in fabric freshening Composition 1, 20 minutes contact time
[5] = in fabric freshening Composition 2, 20 minutes contact time

Molecule	MBC (ppm) against E. coli [1, 4] [ppm]	MBC (ppm) against E. coli [1, 5] [ppm]	MBC (ppm) against S. aureus [2, 4] [ppm]	MBC (ppm) against S. aureus [2, 5] [ppm]	Number of bacteria extracted from treated fabrics [3]	MBC ([1]; Escherichia coli, ATCC8739, 20 min, in fabric freshening Composition 1, 20 minutes contact time, read-out: MBC (ppm) against E. coli) [µg/mL]	MBC ([2]; Staphylococcus aureus, ATCC6538, 20 min, in fabric freshening Composition 1, 20 minutes contact time, read-out: MBC (ppm) against S. aureus) [µg/mL]
CCCCCCCCN=c1ccn(CCCCCCCCCCn2ccc(=NCCCCCCCC)cc2)cc1.Cl.Cl [Bispyridinium alkane (6), octenidine dihydrochloride]	500	250	125	47	no viable bacteria were recovered		
CCCCCCCCCCCCN(CCCN)CCCN [N-(3-aminopropyl)-N-dodecylpropane-1,3-diamine]		3000		3000	about 10^4 CFU/ml	3000 (≈ 10 mM)	3000 (≈ 10 mM)
N-alkyl dimethyl benzyl ammonium chloride [N-alkyl dimethyl benzyl ammonium chloride (9)]	3000		375				
N-alkyl dimethyl benzyl ammonium chloride [N-alkyl dimethyl benzyl ammonium chloride (10)]	1500		562.5				
